# Reference: ChEMBL document CHEMBL6078624, “Structure-based discovery of a 4,5-Dihydropyrazole-cored PET ligand for imaging of receptor-interacting serine/threonine-protein kinase 1 (RIPK1) in the brain” (Eur J Med Chem, 2024)
# Columns and labels:
# [1] = Biodistribution in male ICR mouse blood at 0.74 MBq, iv administered into tail vein pre-treated with GSK'547 followed by compound addition by automatic gamma counter analysis relative to baseline; type: ADME, organism-based; settings: in vivo
# [2] = Biodistribution in male ICR mouse blood at 0.74 MBq, iv administered into tail vein pre-treated with WL8 followed by compound addition by automatic gamma counter analysis relative to baseline; type: ADME, organism-based; settings: in vivo
# [3] = Biodistribution in male ICR mouse brain at 0.74 MBq, iv administered into tail vein pre-treated with GSK'547 followed by compound addition by automatic gamma counter analysis relative to baseline; type: ADME, organism-based; settings: in vivo
# [4] = Biodistribution in male ICR mouse brain at 0.74 MBq, iv administered into tail vein pre-treated with WL8 followed by compound addition by automatic gamma counter analysis relative to baseline; type: ADME, organism-based; settings: in vivo
# [5] = Biodistribution in male ICR mouse heart at 0.74 MBq, iv administered into tail vein pre-treated with GSK'547 followed by compound addition by automatic gamma counter analysis relative to baseline; type: ADME, organism-based; settings: in vivo
# [6] = Biodistribution in male ICR mouse heart at 0.74 MBq, iv administered into tail vein pre-treated with WL8 followed by compound addition by automatic gamma counter analysis relative to baseline; type: ADME, organism-based; settings: in vivo
# [7] = Biodistribution in male ICR mouse liver at 0.74 MBq, iv administered into tail vein pre-treated with GSK'547 followed by compound addition by automatic gamma counter analysis relative to baseline; type: ADME, organism-based; settings: in vivo
# [8] = Biodistribution in male ICR mouse liver at 0.74 MBq, iv administered into tail vein pre-treated with WL8 followed by compound addition by automatic gamma counter analysis relative to baseline; type: ADME, organism-based; settings: in vivo
# [9] = Biodistribution in male ICR mouse spleen at 0.74 MBq, iv administered into tail vein pre-treated with GSK'547 followed by compound addition by automatic gamma counter analysis relative to baseline; type: ADME, organism-based; settings: in vivo
# [10] = Biodistribution in male ICR mouse spleen at 0.74 MBq, iv administered into tail vein pre-treated with WL8 followed by compound addition by automatic gamma counter analysis relative to baseline; type: ADME, organism-based; settings: in vivo
# [11] = Biodistribution in male ICR mouse lung at 0.74 MBq, iv administered into tail vein pre-treated with GSK'547 followed by compound addition by automatic gamma counter analysis relative to baseline; type: ADME, organism-based; settings: in vivo
# [12] = Biodistribution in male ICR mouse lung at 0.74 MBq, iv administered into tail vein pre-treated with WL8 followed by compound addition by automatic gamma counter analysis relative to baseline; type: ADME, organism-based; settings: in vivo
# [13] = Biodistribution in male ICR mouse kidney at 0.74 MBq, iv administered into tail vein pre-treated with GSK'547 followed by compound addition by automatic gamma counter analysis relative to baseline; type: ADME, organism-based; settings: in vivo
# [14] = Biodistribution in male ICR mouse kidney at 0.74 MBq, iv administered into tail vein pre-treated with WL8 followed by compound addition by automatic gamma counter analysis relative to baseline; type: ADME, organism-based; settings: in vivo
# [15] = Biodistribution in male ICR mouse pancreas at 0.74 MBq, iv administered into tail vein pre-treated with GSK'547 followed by compound addition by automatic gamma counter analysis relative to baseline; type: ADME, organism-based; settings: in vivo
# [16] = Biodistribution in male ICR mouse pancreas at 0.74 MBq, iv administered into tail vein pre-treated with WL8 followed by compound addition by automatic gamma counter analysis relative to baseline; type: ADME, organism-based; settings: in vivo
# [17] = Biodistribution in male ICR mouse muscle tissue at 0.74 MBq, iv administered into tail vein pre-treated with GSK'547 followed by compound addition by automatic gamma counter analysis relative to baseline; type: ADME, organism-based; settings: in vivo
# [18] = Biodistribution in male ICR mouse muscle tissue at 0.74 MBq, iv administered into tail vein pre-treated with WL8 followed by compound addition by automatic gamma counter analysis relative to baseline; type: ADME, organism-based; settings: in vivo
# [19] = Biodistribution in male ICR mouse bone at 0.74 MBq, iv administered into tail vein pre-treated with GSK'547 followed by compound addition by automatic gamma counter analysis relative to baseline; type: ADME, organism-based, Bone element; settings: in vivo
# [20] = Biodistribution in male ICR mouse bone at 0.74 MBq, iv administered into tail vein pre-treated with WL8 followed by compound addition by automatic gamma counter analysis relative to baseline; type: ADME, organism-based, Bone element; settings: in vivo
# [21] = Biodistribution in male ICR mouse stomach at 0.74 MBq, iv administered into tail vein pre-treated with GSK'547 followed by compound addition by automatic gamma counter analysis relative to baseline; type: ADME, organism-based; settings: in vivo
# [22] = Biodistribution in male ICR mouse stomach at 0.74 MBq, iv administered into tail vein pre-treated with WL8 followed by compound addition by automatic gamma counter analysis relative to baseline; type: ADME, organism-based; settings: in vivo
# [23] = Biodistribution in male ICR mouse small intestine 0.74 MBq, iv administered into tail vein pre-treated with GSK'547 followed by compound addition by automatic gamma counter analysis relative to baseline; type: ADME, organism-based; settings: in vivo
# [24] = Biodistribution in male ICR mouse small intestine at 0.74 MBq, iv administered into tail vein pre-treated with WL8 followed by compound addition by automatic gamma counter analysis relative to baseline; type: ADME, organism-based; settings: in vivo
# [25] = Biodistribution in male ICR mouse brain at 0.74 MBq, iv administered into tail vein pre-treated with WL8 at 6 mg/kg followed by compound addition by automatic gamma counter analysis; type: ADME, organism-based; settings: in vivo
# [26] = Biodistribution in male ICR mouse brain at 0.74 MBq, iv administered into tail vein pre-treated with WL8 at 2 mg/kg followed by compound addition by automatic gamma counter analysis; type: ADME, organism-based; settings: in vivo
# [27] = Biodistribution in male ICR mouse blood at 0.74 MBq, iv administered into tail vein pre-treated with WL8 followed by compound addition by automatic gamma counter analysis; type: ADME, organism-based; settings: in vivo
# [28] = Biodistribution in male ICR mouse blood at 0.74 MBq, iv administered into tail vein pre-treated with GSK'547 followed by compound addition by automatic gamma counter analysis; type: ADME, organism-based; settings: in vivo
# [29] = Biodistribution in male ICR mouse bone at 0.74 MBq, iv administered into tail vein pre-treated with GSK'547 followed by compound addition by automatic gamma counter analysis; type: ADME, organism-based, Bone element; settings: in vivo
# [30] = Biodistribution in male ICR mouse small intestine at 0.74 MBq, iv administered into tail vein pre-treated with GSK'547 followed by compound addition by automatic gamma counter analysis; type: ADME, organism-based; settings: in vivo
# [31] = Drug degradation in male mouse brain assessed as parent compound remaining at 26.6 MBq by radio-HPLC analysis; type: ADME, tissue-based
# [32] = Drug degradation in male mouse plasma assessed as parent compound remaining at 26.6 MBq by radio-HPLC analysis; type: ADME, cell-free
# [33] = Drug degradation in male mouse liver assessed as parent compound remaining at 26.6 MBq by radio-HPLC analysis; type: ADME, tissue-based
compound,measurement,setting,value
Cc1ccc(C2CC=NN2C(=O)C2CCN(C(=O)c3cccc([18F])n3)CC2)cc1F (stereo not drawn),Drug uptake,[1],Active
same,Drug uptake,[2],Active
same,Drug uptake,[3],Active
same,Drug uptake,[4],Active
same,Drug uptake,[5],Active
same,Drug uptake,[6],Active
same,Drug uptake,[7],Active
same,Drug uptake,[8],Active
same,Drug uptake,[9],Active
same,Drug uptake,[10],Active
same,Drug uptake,[11],Active
same,Drug uptake,[12],Active
same,Drug uptake,[13],Active
same,Drug uptake,[14],Active
same,Drug uptake,[15],Active
same,Drug uptake,[16],Active
same,Drug uptake,[17],Active
same,Drug uptake,[18],Active
same,Drug uptake,[19],Not_active
same,Drug uptake,[20],Not_active
same,Drug uptake,[21],Active
same,Drug uptake,[22],Active
same,Drug uptake,[23],Not_active
same,Drug uptake,[24],Not_active
same,Drug uptake,[25],129%
same,Drug uptake,[26],58%
same,Drug uptake,[27],> 58%
same,Drug uptake,[28],> 58%
same,Drug uptake,[29],> 29%
same,Drug uptake,[30],> 27%
same,Stability,[31],35.2%
same,Stability,[32],10.8%
same,Stability,[33],13.6%
